Source: ChEMBL document CHEMBL4376830, “Diterpenoids and Bisnorditerpenoids from Blumea aromatica” (2019)
The source made the active and inactive calls. No cut-off for these calls is given here.

Assays:
Mus musculus = species: Mus musculus; experiment: Anti-immunosuppressive activity in LPS-activated mouse MDSC assessed as reduction in PD-L1 expression at 20 to 40 uM incubated for 24 hrs by flow cytometry; type: functional
RAW264.7 = experiment: Anti-inflammatory activity in LPS-stimulated mouse RAW264.7 cells assessed as reduction in TNF-alpha production at 40 uM by ELISA relative to control; type: functional

| SMILES | inhibition (Mus musculus) | inhibition at 40 µM (RAW264.7) |
| --- | --- | --- |
| O=C(/C=C/c1ccc(O)c(O)c1)O[C@@H]1C[C@](OC(=O)/C=C/c2ccc(O)c(O)c2)(C(=O)O)C[C@@H](O)[C@@H]1O | inactive |  |
| CC(=O)/C=C/[C@H]1[C@](C)(O)[C@@H](O)[C@H](OC(=O)C=C(C)C)[C@H]2C(C)(C)CCC[C@@]21C | inactive |  |
| CCC(C)/C(=C/C(=O)O)C(=O)O (stereo unspecified) | inactive |  |
| C/C=C(/C)C(=O)O[C@H]1[C@H](O)[C@@](C)(O)[C@H](/C=C/C(C)=O)[C@@]2(C)CCCC(C)(C)[C@H]12 | inactive |  |
| CC1(C)C[C@H](O)C[C@@](C)(O)/C1=C\C(=O)O | inactive | 27.5% |
| O=C(O)/C=C/C(=O)O | inactive |  |
| COc1ccc(-c2oc3cc(O)c(OC)c(O)c3c(=O)c2OC)cc1 [SANTIN] | inactive | 24% |
| CC(=O)/C=C/[C@H]1[C@](C)(O)[C@@H](O)[C@H](O)[C@H]2C(C)(C)CCC[C@@]21C | inactive |  |
| O=C(/C=C/c1ccc(O)c(O)c1)O[C@@H]1C[C@](O)(C(=O)O)C[C@@H](OC(=O)/C=C/c2ccc(O)c(O)c2)[C@@H]1O | inactive |  |
| C=C/C(C)=C/C[C@H]1[C@](C)(O)[C@@H](O)[C@H](OC(=O)CC(C)C)[C@H]2C(C)(C)CCC[C@@]21C | inactive |  |
| O=C(/C=C/c1ccc(O)c(O)c1)O[C@H]1[C@H](O)C[C@](O)(C(=O)O)C[C@H]1OC(=O)/C=C/c1ccc(O)c(O)c1 | inactive |  |
| O=Cc1c[nH]c2ccccc12 | inactive |  |
| O=c1c(O[C@@H]2O[C@H](CO)[C@@H](O)[C@H](O)[C@H]2O)c(-c2ccc(O)cc2)oc2cc(O)cc(O)c12 | inactive |  |
| CC(=O)/C=C/[C@H]1[C@](C)(O)[C@@H](O)[C@H](OC(=O)CC(C)C)[C@H]2C(C)(C)CCC[C@@]21C | inactive |  |
| C=CC(=C)[C@H](O)C[C@H]1[C@](C)(O)[C@@H](O)[C@H](O)[C@H]2C(C)(C)CCC[C@@]21C | inactive |  |
| CCC(C)/C(=C/C(=O)O)C(=O)OC (stereo unspecified) | inactive |  |
| C=C/C(C)=C/C[C@H]1[C@](C)(O)[C@@H](O)[C@H](O)[C@H]2C(C)(C)CCC[C@@]21C | inactive |  |
| O=C(/C=C/c1ccc(O)c(O)c1)O[C@@H]1C[C@@](O)(C(=O)O)C[C@@H](O)[C@H]1O | inactive |  |
| COC(=O)[C@@]1(O)C[C@@H](O)[C@@H](OC(=O)/C=C/c2ccc(O)c(O)c2)[C@H](OC(=O)/C=C/c2ccc(O)c(O)c2)C1 | inactive |  |
| C=CC(=C)[C@@H](O)C[C@H]1[C@](C)(O)[C@@H](O)[C@H](O)[C@H]2C(C)(C)CCC[C@@]21C | inactive |  |
| CC[C@H](CC[C@@H](C)[C@H]1CC[C@H]2[C@@H]3CC=C4C[C@@H](O)CC[C@]4(C)[C@H]3CC[C@]12C)C(C)C | inactive |  |
| O=C(/C=C/c1ccc(O)c(O)c1)O[C@@H]1[C@H](O)C[C@](O)(C(=O)O)C[C@H]1OC(=O)/C=C/c1ccc(O)c(O)c1 | inactive | 15.5% |
| CCCCOC(=O)[C@@]1(O)C[C@@H](O)[C@@H](OC(=O)/C=C/c2ccc(O)c(O)c2)[C@H](OC(=O)/C=C/c2ccc(O)c(O)c2)C1 | inactive |  |
